# Data as given in patent US7118895B2, “Process for producing aglycon by using diglycosidase and flavor-improved food containing the aglycon and converting agent to be used in the process” (Amano Enzyme Inc., priority 2000, dated 2006).
# How the values were obtained:
# [1] = system: β-Glucosidase derived from almond; test: Reactivity toward various isoflavone glycosides (HPLC); assay type: biochemical; parameters: unit not given here; details: 55 °C, pH 4.0
# Outline: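 Enzymes at 0.75 AU/mL in pH 4.0 acetate buffer were reacted at 55° C with individual isoflavone glycosides (substrate stock 2 mM in methanol) in 20 mM acetate pH 4.0. Aglycone release followed at 0, 1, 3 and 6 h: ethanol-quenched, ODS HPLC with UV 260 nm, quantified against calibration curves.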
# Crude diglycosidase = test: Examination of temperature in the conversion into isoflavone aglycons by diglycosidase using soybean materials; assay type: biochemical, Penicillium multicolor IAM7153; parameters: Decomposition efficiency of glycitin family in roasted soy flour / Decomposition efficiency of daidzin family in roasted soy flour / Decomposition efficiency of genistin family in soymilk / Decomposition efficiency of daidzin family in soymilk / Decomposition efficiency of glycitin family in defatted soybean / Decomposition efficiency of daidzin family in defatted soybean: concentration or dose not given beside the values
# Outline: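 Soybean materials (50 mg) suspended in 20 mM acetate buffer pH 4.0 reacted with crude diglycosidase diluted to 1.88 AU/mL at 80, 65, 55, 45, 37 or 30° C. Reactions stopped with ethanol at 0, 1, 3 and 6 h; isoflavone glycosides and aglycons in supernatant detected by HPLC.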
# [2] = 30 °C, heat treatment of enzyme: no, 0 h
# [3] = 30 °C, heat treatment of enzyme: no, 1 h
# [4] = 30 °C, heat treatment of enzyme: no, 3 h
# [5] = 30 °C, heat treatment of enzyme: no, 6 h
# [6] = 30 °C, heat treatment of enzyme: yes, 6 h
# [7] = 45 °C, heat treatment of enzyme: no, 0 h
# [8] = 45 °C, heat treatment of enzyme: no, 1 h
# [9] = 45 °C, heat treatment of enzyme: no, 3 h
# [10] = 45 °C, heat treatment of enzyme: no, 6 h
# [11] = 45 °C, heat treatment of enzyme: yes, 6 h
# [12] = 55 °C, heat treatment of enzyme: no, 0 h
# [13] = 55 °C, heat treatment of enzyme: no, 1 h
# [14] = 55 °C, heat treatment of enzyme: no, 3 h
# [15] = 55 °C, heat treatment of enzyme: no, 6 h
# [16] = 55 °C, heat treatment of enzyme: yes, 6 h
# [17] = 65 °C, heat treatment of enzyme: no, 0 h
# [18] = 65 °C, heat treatment of enzyme: no, 1 h
# [19] = 65 °C, heat treatment of enzyme: no, 3 h
# [20] = 65 °C, heat treatment of enzyme: no, 6 h
# [21] = 65 °C, heat treatment of enzyme: yes, 6 h
# [22] = 80 °C, heat treatment of enzyme: no, 0 h
# [23] = 80 °C, heat treatment of enzyme: no, 1 h
# [24] = 80 °C, heat treatment of enzyme: no, 3 h
# [25] = 80 °C, heat treatment of enzyme: no, 6 h
# [26] = 80 °C, heat treatment of enzyme: yes, 6 h
structure (smiles),measurement,setting,value
"COc1cc2c(=O)c(-c3ccc(O)cc3)coc2cc1O[C@@H]1O[C@H](COC(=O)CC(=O)O)[C@@H](O)[C@H](O)[C@H]1O [malonylglycitin, 6″-O-malonylglycitin]",aglycon,[1]; Reaction time 0 h,0
same,glucoside,[1]; Reaction time 0 h,100
same,aglycon,[1]; Reaction time 1 h,0
same,glucoside,[1]; Reaction time 1 h,100
same,aglycon,[1]; Reaction time 3 h,0
same,glucoside,[1]; Reaction time 3 h,100
same,aglycon,[1]; Reaction time 6 h,0
same,glucoside,[1]; Reaction time 6 h,100
same,Decomposition efficiency of glycitin family in defatted soybean,"Crude diglycosidase; 30° C., heat treatment of enzyme no, reaction time 0 h",61.3%
same,Decomposition efficiency of glycitin family in defatted soybean,"Crude diglycosidase; 30° C., heat treatment of enzyme no, reaction time 1 h",48.3%
same,Decomposition efficiency of glycitin family in defatted soybean,"Crude diglycosidase; 30° C., heat treatment of enzyme no, reaction time 3 h",44.6%
same,Decomposition efficiency of glycitin family in defatted soybean,"Crude diglycosidase; 30° C., heat treatment of enzyme no, reaction time 6 h",45.6%
same,Decomposition efficiency of glycitin family in defatted soybean,"Crude diglycosidase; 30° C., heat treatment of enzyme yes, reaction time 6 h",45.1%
same,Decomposition efficiency of glycitin family in concentrated soybean protein,Crude diglycosidase; [2],0.4%
same,Decomposition efficiency of glycitin family in roasted soy flour,Crude diglycosidase; [2],not detected
same,Decomposition efficiency of glycitin family in soymilk,Crude diglycosidase; [2],48.0%
same,Decomposition efficiency of glycitin family in concentrated soybean protein,Crude diglycosidase; [3],0.5%
same,Decomposition efficiency of glycitin family in roasted soy flour,Crude diglycosidase; [3],not detected
same,Decomposition efficiency of glycitin family in soymilk,Crude diglycosidase; [3],51.0%
same,Decomposition efficiency of glycitin family in concentrated soybean protein,Crude diglycosidase; [4],0.5%
same,Decomposition efficiency of glycitin family in roasted soy flour,Crude diglycosidase; [4],not detected
same,Decomposition efficiency of glycitin family in soymilk,Crude diglycosidase; [4],39.6%
same,Decomposition efficiency of glycitin family in concentrated soybean protein,Crude diglycosidase; [5],0.5%
same,Decomposition efficiency of glycitin family in roasted soy flour,Crude diglycosidase; [5],not detected
same,Decomposition efficiency of glycitin family in soymilk,Crude diglycosidase; [5],28.4%
same,Decomposition efficiency of glycitin family in concentrated soybean protein,Crude diglycosidase; [6],0.4%
same,Decomposition efficiency of glycitin family in roasted soy flour,Crude diglycosidase; [6],not detected
same,Decomposition efficiency of glycitin family in soymilk,Crude diglycosidase; [6],47.7%
same,Decomposition efficiency of glycitin family in defatted soybean,"Crude diglycosidase; 45° C., heat treatment of enzyme no, reaction time 0 h",65.2%
same,Decomposition efficiency of glycitin family in defatted soybean,"Crude diglycosidase; 45° C., heat treatment of enzyme no, reaction time 1 h",44.3%
same,Decomposition efficiency of glycitin family in defatted soybean,"Crude diglycosidase; 45° C., heat treatment of enzyme no, reaction time 3 h",44.8%
same,Decomposition efficiency of glycitin family in defatted soybean,"Crude diglycosidase; 45° C., heat treatment of enzyme no, reaction time 6 h",41.0%
same,Decomposition efficiency of glycitin family in defatted soybean,"Crude diglycosidase; 45° C., heat treatment of enzyme yes, reaction time 6 h",44.2%
same,Decomposition efficiency of glycitin family in concentrated soybean protein,Crude diglycosidase; [7],0.4%
same,Decomposition efficiency of glycitin family in roasted soy flour,Crude diglycosidase; [7],not detected
same,Decomposition efficiency of glycitin family in soymilk,Crude diglycosidase; [7],49.1%
same,Decomposition efficiency of glycitin family in concentrated soybean protein,Crude diglycosidase; [8],0.6%
same,Decomposition efficiency of glycitin family in roasted soy flour,Crude diglycosidase; [8],not detected
same,Decomposition efficiency of glycitin family in soymilk,Crude diglycosidase; [8],46.2%
same,Decomposition efficiency of glycitin family in concentrated soybean protein,Crude diglycosidase; [9],0.6%
same,Decomposition efficiency of glycitin family in roasted soy flour,Crude diglycosidase; [9],not detected
same,Decomposition efficiency of glycitin family in soymilk,Crude diglycosidase; [9],29.9%
same,Decomposition efficiency of glycitin family in concentrated soybean protein,Crude diglycosidase; [10],0.6%
same,Decomposition efficiency of glycitin family in roasted soy flour,Crude diglycosidase; [10],not detected
same,Decomposition efficiency of glycitin family in soymilk,Crude diglycosidase; [10],15.3%
same,Decomposition efficiency of glycitin family in concentrated soybean protein,Crude diglycosidase; [11],0.5%
same,Decomposition efficiency of glycitin family in roasted soy flour,Crude diglycosidase; [11],not detected
same,Decomposition efficiency of glycitin family in soymilk,Crude diglycosidase; [11],47.2%
same,Decomposition efficiency of glycitin family in defatted soybean,"Crude diglycosidase; 55° C., heat treatment of enzyme no, reaction time 0 h",61.3%
same,Decomposition efficiency of glycitin family in defatted soybean,"Crude diglycosidase; 55° C., heat treatment of enzyme no, reaction time 1 h",44.8%
same,Decomposition efficiency of glycitin family in defatted soybean,"Crude diglycosidase; 55° C., heat treatment of enzyme no, reaction time 3 h",42.6%
same,Decomposition efficiency of glycitin family in defatted soybean,"Crude diglycosidase; 55° C., heat treatment of enzyme no, reaction time 6 h",42.7%
same,Decomposition efficiency of glycitin family in defatted soybean,"Crude diglycosidase; 55° C., heat treatment of enzyme yes, reaction time 6 h",45.5%
same,Decomposition efficiency of glycitin family in concentrated soybean protein,Crude diglycosidase; [12],0.4%
same,Decomposition efficiency of glycitin family in roasted soy flour,Crude diglycosidase; [12],not detected
same,Decomposition efficiency of glycitin family in soymilk,Crude diglycosidase; [12],44.6%
same,Decomposition efficiency of glycitin family in concentrated soybean protein,Crude diglycosidase; [13],0.5%
same,Decomposition efficiency of glycitin family in roasted soy flour,Crude diglycosidase; [13],not detected
same,Decomposition efficiency of glycitin family in soymilk,Crude diglycosidase; [13],39.1%
same,Decomposition efficiency of glycitin family in concentrated soybean protein,Crude diglycosidase; [14],0.5%
same,Decomposition efficiency of glycitin family in roasted soy flour,Crude diglycosidase; [14],not detected
same,Decomposition efficiency of glycitin family in soymilk,Crude diglycosidase; [14],27.7%
same,Decomposition efficiency of glycitin family in concentrated soybean protein,Crude diglycosidase; [15],0.5%
same,Decomposition efficiency of glycitin family in roasted soy flour,Crude diglycosidase; [15],not detected
same,Decomposition efficiency of glycitin family in soymilk,Crude diglycosidase; [15],16.5%
same,Decomposition efficiency of glycitin family in concentrated soybean protein,Crude diglycosidase; [16],0.4%
same,Decomposition efficiency of glycitin family in roasted soy flour,Crude diglycosidase; [16],not detected
same,Decomposition efficiency of glycitin family in soymilk,Crude diglycosidase; [16],39.9%
same,Decomposition efficiency of glycitin family in defatted soybean,"Crude diglycosidase; 65° C., heat treatment of enzyme no, reaction time 0 h",65.2%
same,Decomposition efficiency of glycitin family in defatted soybean,"Crude diglycosidase; 65° C., heat treatment of enzyme no, reaction time 1 h",45.3%
same,Decomposition efficiency of glycitin family in defatted soybean,"Crude diglycosidase; 65° C., heat treatment of enzyme no, reaction time 3 h",42.1%
same,Decomposition efficiency of glycitin family in defatted soybean,"Crude diglycosidase; 65° C., heat treatment of enzyme no, reaction time 6 h",40.0%
same,Decomposition efficiency of glycitin family in defatted soybean,"Crude diglycosidase; 65° C., heat treatment of enzyme yes, reaction time 6 h",48.8%
same,Decomposition efficiency of glycitin family in concentrated soybean protein,Crude diglycosidase; [17],0.4%
same,Decomposition efficiency of glycitin family in roasted soy flour,Crude diglycosidase; [17],not detected
same,Decomposition efficiency of glycitin family in soymilk,Crude diglycosidase; [17],48.0%
same,Decomposition efficiency of glycitin family in concentrated soybean protein,Crude diglycosidase; [18],0.5%
same,Decomposition efficiency of glycitin family in roasted soy flour,Crude diglycosidase; [18],not detected
same,Decomposition efficiency of glycitin family in soymilk,Crude diglycosidase; [18],42.4%
same,Decomposition efficiency of glycitin family in concentrated soybean protein,Crude diglycosidase; [19],0.5%
same,Decomposition efficiency of glycitin family in roasted soy flour,Crude diglycosidase; [19],not detected
same,Decomposition efficiency of glycitin family in soymilk,Crude diglycosidase; [19],34.3%
same,Decomposition efficiency of glycitin family in concentrated soybean protein,Crude diglycosidase; [20],0.4%
same,Decomposition efficiency of glycitin family in roasted soy flour,Crude diglycosidase; [20],not detected
same,Decomposition efficiency of glycitin family in soymilk,Crude diglycosidase; [20],25.5%
same,Decomposition efficiency of glycitin family in concentrated soybean protein,Crude diglycosidase; [21],0.4%
same,Decomposition efficiency of glycitin family in roasted soy flour,Crude diglycosidase; [21],not detected
same,Decomposition efficiency of glycitin family in soymilk,Crude diglycosidase; [21],36.0%
same,Decomposition efficiency of glycitin family in defatted soybean,"Crude diglycosidase; 80° C., heat treatment of enzyme no, reaction time 0 h",65.2%
same,Decomposition efficiency of glycitin family in defatted soybean,"Crude diglycosidase; 80° C., heat treatment of enzyme no, reaction time 1 h",46.1%
same,Decomposition efficiency of glycitin family in defatted soybean,"Crude diglycosidase; 80° C., heat treatment of enzyme no, reaction time 3 h",45.0%
same,Decomposition efficiency of glycitin family in defatted soybean,"Crude diglycosidase; 80° C., heat treatment of enzyme no, reaction time 6 h",40.3%
same,Decomposition efficiency of glycitin family in defatted soybean,"Crude diglycosidase; 80° C., heat treatment of enzyme yes, reaction time 6 h",48.1%
same,Decomposition efficiency of glycitin family in concentrated soybean protein,Crude diglycosidase; [22],0.4%
same,Decomposition efficiency of glycitin family in roasted soy flour,Crude diglycosidase; [22],not detected
same,Decomposition efficiency of glycitin family in soymilk,Crude diglycosidase; [22],49.1%
same,Decomposition efficiency of glycitin family in concentrated soybean protein,Crude diglycosidase; [23],0.4%
same,Decomposition efficiency of glycitin family in roasted soy flour,Crude diglycosidase; [23],not detected
same,Decomposition efficiency of glycitin family in soymilk,Crude diglycosidase; [23],43.6%
same,Decomposition efficiency of glycitin family in concentrated soybean protein,Crude diglycosidase; [24],0.4%
same,Decomposition efficiency of glycitin family in roasted soy flour,Crude diglycosidase; [24],not detected
same,Decomposition efficiency of glycitin family in soymilk,Crude diglycosidase; [24],32.6%
same,Decomposition efficiency of glycitin family in concentrated soybean protein,Crude diglycosidase; [25],0.3%
same,Decomposition efficiency of glycitin family in roasted soy flour,Crude diglycosidase; [25],not detected
same,Decomposition efficiency of glycitin family in soymilk,Crude diglycosidase; [25],21.3%
same,Decomposition efficiency of glycitin family in concentrated soybean protein,Crude diglycosidase; [26],0.3%
same,Decomposition efficiency of glycitin family in roasted soy flour,Crude diglycosidase; [26],not detected
same,Decomposition efficiency of glycitin family in soymilk,Crude diglycosidase; [26],19.3%
